Values quoted from earlier work as cited in patent US20220047541A1, “PHARMACEUTICAL COMPOSITIONS AND METHODS FOR TREATING PARKINSON'S DISEASE” (Pike Therapeutics, Inc., priority 2020, published 2022).

What was measured:
CB2 = CB2 (Homo sapiens, UniProt P34972); details: given as ×, fold or times
CB2, sequence (P34972 whole entry, species assumed): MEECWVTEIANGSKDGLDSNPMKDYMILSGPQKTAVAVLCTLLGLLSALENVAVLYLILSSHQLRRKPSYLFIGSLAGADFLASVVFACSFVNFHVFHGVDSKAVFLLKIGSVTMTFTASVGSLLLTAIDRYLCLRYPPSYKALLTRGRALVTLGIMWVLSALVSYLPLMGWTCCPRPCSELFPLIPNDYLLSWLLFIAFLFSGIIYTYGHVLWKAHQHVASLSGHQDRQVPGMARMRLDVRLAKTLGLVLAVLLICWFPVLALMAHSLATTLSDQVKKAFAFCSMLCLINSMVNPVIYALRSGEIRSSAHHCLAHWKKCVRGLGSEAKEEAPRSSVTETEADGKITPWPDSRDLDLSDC

| Structure (SMILES) | selectivity for CB2 over CB1 (CB2) | solubility in water |
| --- | --- | --- |
| CCCCCCC(C)(C)c1cc(O)c2c(c1)oc(=O)c1ccc(OC)cc12 [AM-1710] | 54 fold | – |
| CCCn1cc(C(=O)c2ccc(C)c3ccccc23)c2ccccc21 [JWH-120] | 173 fold | – |
| CCCn1c(C)c(C(=O)c2ccc(C)c3ccccc23)c2ccccc21 [JWH-148] | more than 8 fold | – |
| CCCCCCC(C)(C)c1cc(OC)c2c(c1)OC(C)(C)C1CCC(O)CC21 (stereo not drawn) [JWH-350, 11-nor-1-methoxy-3-(1′,1′-dimethylheptyl)-9α-hydroxyhexahydrocannabinol] | 33 fold | – |
| N[C@@H](Cc1ccc(O)c(O)c1)C(=O)O [Levodopa, L-3,4-dihydroxyphenylalanine (S)-2-amino-3-(3,4-dihydroxyphenyl)propanoic acid] | – | slightly soluble |
